The record followed here is US10745400B2, “Inhibition of BMP signaling, compounds, compositions and uses thereof” (Vanderbilt University, priority 2018, dated 2020).

Data set [1] can be described thus: Protein binding, mouse. Format: in vitro ADME.
Data set [2] has as its target T1, ALK2 (Q207D) (Homo sapiens, UniProt Q04771, Q207D).
T1 sequence (Q04771 21-509 Q207D): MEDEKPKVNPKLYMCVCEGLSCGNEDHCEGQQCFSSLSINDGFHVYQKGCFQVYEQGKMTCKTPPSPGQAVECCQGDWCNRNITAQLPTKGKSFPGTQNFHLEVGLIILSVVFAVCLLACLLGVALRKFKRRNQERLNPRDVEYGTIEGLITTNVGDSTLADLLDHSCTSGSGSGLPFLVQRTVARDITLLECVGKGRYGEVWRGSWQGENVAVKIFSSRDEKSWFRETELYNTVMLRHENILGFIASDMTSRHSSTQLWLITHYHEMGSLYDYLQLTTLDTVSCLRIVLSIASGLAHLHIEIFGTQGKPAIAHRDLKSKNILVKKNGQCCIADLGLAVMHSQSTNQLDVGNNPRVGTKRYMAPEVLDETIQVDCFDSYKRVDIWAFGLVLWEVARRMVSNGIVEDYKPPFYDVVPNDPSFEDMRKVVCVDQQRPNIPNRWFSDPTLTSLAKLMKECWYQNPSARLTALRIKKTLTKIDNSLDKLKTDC
The data set can be described thus: Kinase assay (33P-ATP filter-binding), ALK2 Q207D. The class given is biochemical. To be noted: Q207D mutant, 20 mM; read-out: Kinase Selectivity ALK2 (Q207D, 20 mM). The procedure, abridged: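 Kinase mixed into substrate in Hepes (pH 7.5)/MgCl2/EGTA/DTT buffer, 1% DMSO. Cpd acoustically dispensed, 20 min RT preinc. Start w/ 33P-ATP, 2 h RT, P81 spot, filter-binding.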

Consider `Cc1cc(-c2cnc3cc(-c4ccc(C5COC6(CCNCC6)CN5)cc4)ccn23)c2cc(F)cc(F)c2n1` (stereo not drawn) [Compound 16], for which the “Protein Binding (% Free) Mouse” value in data set [1] was 4.7 % Free. The IC50 in data set [2] stood at 6.3 nM. The matching figures for `Cc1cc(-c2cnc3cc(-c4ccc(C5COCC(C)N5)cc4)ccn23)c2cc(F)cc(F)c2n1` (stereo not drawn) [Compound 23]: 2.85 % Free and less than 5.1 nM. The matching figures for `Cc1cc(-c2cnc3cc(-c4ccc(C5COC6(CCNC6)CN5)cc4)ccn23)c2cc(F)cc(F)c2n1` (stereo not drawn) [Compound 27]: 3.9 % Free and 219 nM.

With `c1cnc2nccc(-c3cnc4cc(-c5ccc(C6CNCCN6)cc5)ccn34)c2c1` (stereo not drawn) [Compound 32], the “Protein Binding (% Free) Mouse” value in data set [1] stood at 33.9 % Free. In addition, the IC50 in data set [2] was less than 5.1 nM.

As to `c1cc(-c2cnc3cc(-c4ccc(C5CNCCN5)cc4)ccn23)c2cccnc2c1` (stereo not drawn) [Compound 33], in data set [1], the “Protein Binding (% Free) Mouse” value turned out to be 8.4 % Free. Moreover, the IC50 in data set [2] was less than 5.1 nM.

For `O=C1CNC(=O)C(c2ccc(-c3ccn4c(-c5cccc6ncccc56)cnc4c3)cc2)N1` (stereo not drawn) [Compound 36], the IC50 in data set [2] is less than 5.1 nM. Consider `NS(=O)(=O)c1ccc(-c2cnc3cc(-c4ccc(C5CNCCN5)cc4)ccn23)c2ccccc12` (stereo not drawn) [Compound 37], for which, in data set [2], the IC50 was found to be 5.8 nM.
